Active and inactive are the calls of the source. How the calls were made is not given here.

In PubChem BioAssay AID1259407 (Chemical Carcinogenesis Research Information System (CCRIS), 2018) one finds mutagenic call data, which are given here for nine molecules.

This series relates to CCRIS mutagenicity, Ames/micronucleus/aberration tests. The series can be described thus: CCRIS mutagenicity studies.
Setting [1] is: Test System: AMES SALMONELLA TYPHIMURIUM, Strain/Indicator: TA100, Metabolic Activation: NONE, Method: PREINCUBATION
The mark [2] stands for this setting: Test System: AMES SALMONELLA TYPHIMURIUM, Strain/Indicator: TA98, Metabolic Activation: NONE, Method: STANDARD PLATE.
Where [3] appears, read: Test System: AMES SALMONELLA TYPHIMURIUM, Strain/Indicator: TA100, Metabolic Activation: NONE, Method: STANDARD PLATE.
Where [4] appears, read: Test System: AMES SALMONELLA TYPHIMURIUM, Strain/Indicator: TA98, Metabolic Activation: RAT, LIVER, S-9, AROCLOR 1254, Method: STANDARD PLATE.
The mark [5] stands for this setting: Test System: AMES SALMONELLA TYPHIMURIUM, Strain/Indicator: TA1538, Metabolic Activation: NONE, Method: STANDARD PLATE.

With `COc1ccc2c(c1)C(=O)c1c(OC)c(OC)cc3ccnc-2c13`, the mutagenic call is “active; positive” (Test System: AMES SALMONELLA TYPHIMURIUM, Strain/Indicator: TA98, Metabolic Activation: RAT, LIVER, S-9, PHENOBARBITAL AND BETA-NAPHTHOFLAVONE, Method: PREINCUBATION) and “active; positive” (Test System: AMES SALMONELLA TYPHIMURIUM, Strain/Indicator: TA100, Metabolic Activation: RAT, LIVER, S-9, PHENOBARBITAL AND BETA-NAPHTHOFLAVONE, Method: PREINCUBATION).

Take `OC1C=Cc2c(ccc3c2-c2cccc4cccc-3c24)C1O` (stereo not given): the mutagenic call by setting is: (Test System: AMES SALMONELLA TYPHIMURIUM, Strain/Indicator: TA97A, Metabolic Activation: NONE, Method: PREINCUBATION) “inactive; negative”; (Test System: AMES SALMONELLA TYPHIMURIUM, Strain/Indicator: TA97A, Metabolic Activation: RAT, LIVER, S-9, AROCLOR 1254, Method: PREINCUBATION) “active; positive”; (Test System: AMES SALMONELLA TYPHIMURIUM, Strain/Indicator: TA98, Metabolic Activation: NONE, Method: PREINCUBATION) “inactive; negative”; (Test System: AMES SALMONELLA TYPHIMURIUM, Strain/Indicator: TA98, Metabolic Activation: RAT, LIVER, S-9, AROCLOR 1254, Method: PREINCUBATION) “active; positive”; under setting [1], “inactive; negative”; (Test System: AMES SALMONELLA TYPHIMURIUM, Strain/Indicator: TA100, Metabolic Activation: RAT, LIVER, S-9, AROCLOR 1254, Method: PREINCUBATION) “active; positive”.

Consider `O=[N+]([O-])c1ccc2c(c1)nc(/C=N/OCc1ccccc1[N+](=O)[O-])n2Cc1ccc(Cl)cc1Cl`, for which the mutagenic call reads like this: under setting [2], “active; positive”; (Test System: AMES SALMONELLA TYPHIMURIUM, Strain/Indicator: TA98, Metabolic Activation: RAT, LIVER, S-9, PHENOBARBITAL AND BETA-NAPHTHOFLAVONE, Method: STANDARD PLATE) “active; positive”; under setting [3], “active; positive”; (Test System: AMES SALMONELLA TYPHIMURIUM, Strain/Indicator: TA100, Metabolic Activation: RAT, LIVER, S-9, PHENOBARBITAL AND BETA-NAPHTHOFLAVONE, Method: STANDARD PLATE) “active; positive”.

As for `CCCCCCCC/C=C\CCCCCCCCN` (tested in a mixture with another compound), the mutagenic call reads like this: under setting [2], “inactive; negative”; under setting [4], “active; positive”; under setting [3], “inactive; negative”; (Test System: AMES SALMONELLA TYPHIMURIUM, Strain/Indicator: TA100, Metabolic Activation: RAT, LIVER, S-9, AROCLOR 1254, Method: STANDARD PLATE) “inactive; negative”; (Test System: AMES SALMONELLA TYPHIMURIUM, Strain/Indicator: TA1535, Metabolic Activation: NONE, Method: STANDARD PLATE) “inactive; negative”; (Test System: AMES SALMONELLA TYPHIMURIUM, Strain/Indicator: TA1535, Metabolic Activation: RAT, LIVER, S-9, AROCLOR 1254, Method: STANDARD PLATE) “inactive; negative”. For the same molecule, the mutagenic call is “inactive; negative” (Test System: AMES SALMONELLA TYPHIMURIUM, Strain/Indicator: TA1537, Metabolic Activation: NONE, Method: STANDARD PLATE); “inactive; negative” (Test System: AMES SALMONELLA TYPHIMURIUM, Strain/Indicator: TA1537, Metabolic Activation: RAT, LIVER, S-9, AROCLOR 1254, Method: STANDARD PLATE); “inactive; negative” under setting [5]; “active; positive” (Test System: AMES SALMONELLA TYPHIMURIUM, Strain/Indicator: TA1538, Metabolic Activation: RAT, LIVER, S-9, AROCLOR 1254, Method: STANDARD PLATE).

Consider `CC(=O)Nc1cc(N(CCOC(C)=O)CCOC(C)=O)ccc1N=Nc1ccc([N+](=O)[O-])cc1Cl`, for which the mutagenic call is, setting by setting: (End Point: IN VITRO CHROMOSOMAL ABERRATIONS, Test System: CHL CELLS, Metabolic Activation: NONE) “inactive; negative”; (End Point: IN VITRO CHROMOSOMAL ABERRATIONS, Test System: CHL CELLS, Metabolic Activation: RAT, LIVER, S-9, SODIUM PHENOBARBITAL AND 5,6-BENZOFLAVONE) “inactive; negative”.

Regarding `COc1c(Cl)c(Cl)c(Cl)c(Cl)c1Cl`, the mutagenic call runs as follows: (Test System: AMES SALMONELLA TYPHIMURIUM, Strain/Indicator: TA98, Metabolic Activation: HAMSTER, LIVER, S-9, AROCLOR 1254 (10%), Method: PREINCUBATION) “inactive; negative”; (Test System: AMES SALMONELLA TYPHIMURIUM, Strain/Indicator: TA98, Metabolic Activation: MOUSE, LIVER, S-9, AROCLOR 1254, Method: PREINCUBATION) “inactive; negative”; (Test System: AMES SALMONELLA TYPHIMURIUM, Strain/Indicator: TA98, Metabolic Activation: RAT, LIVER, S-9, AROCLOR 1254 (10%), Method: PREINCUBATION) “inactive; negative”; (Test System: AMES SALMONELLA TYPHIMURIUM, Strain/Indicator: TA100, Metabolic Activation: HAMSTER, LIVER, S-9, AROCLOR 1254 (10%), Method: PREINCUBATION) “inactive; negative”; (Test System: AMES SALMONELLA TYPHIMURIUM, Strain/Indicator: TA100, Metabolic Activation: MOUSE, LIVER, S-9, AROCLOR 1254, Method: PREINCUBATION) “inactive; negative”; under setting [1], “inactive; negative”. The mutagenic call reads like this: (Test System: AMES SALMONELLA TYPHIMURIUM, Strain/Indicator: TA100, Metabolic Activation: RAT, LIVER, S-9, AROCLOR 1254 (10%), Method: PREINCUBATION) “inactive; negative”; (Test System: AMES SALMONELLA TYPHIMURIUM, Strain/Indicator: TA1535, Metabolic Activation: HAMSTER, LIVER, S-9, AROCLOR 1254 (10%), Method: PREINCUBATION) “inactive; negative”; (Test System: AMES SALMONELLA TYPHIMURIUM, Strain/Indicator: TA1535, Metabolic Activation: NONE, Method: PREINCUBATION) “inactive; negative”; (Test System: AMES SALMONELLA TYPHIMURIUM, Strain/Indicator: TA1535, Metabolic Activation: RAT, LIVER, S-9, AROCLOR 1254 (10%), Method: PREINCUBATION) “inactive; negative”; (Test System: AMES SALMONELLA TYPHIMURIUM, Strain/Indicator: TA1537, Metabolic Activation: HAMSTER, LIVER, S-9, AROCLOR 1254 (10%), Method: PREINCUBATION) “inactive; negative”; (Test System: AMES SALMONELLA TYPHIMURIUM, Strain/Indicator: TA1537, Metabolic Activation: NONE, Method: PREINCUBATION) “active; positive”. Moreover, the mutagenic call (Test System: AMES SALMONELLA TYPHIMURIUM, Strain/Indicator: TA1537, Metabolic Activation: RAT, LIVER, S-9, AROCLOR 1254 (10%), Method: PREINCUBATION) was “inactive; negative”; the mutagenic call (Test System: E. COLI, Strain/Indicator: WP2, Metabolic Activation: MOUSE, LIVER, S-9, AROCLOR 1254, Method: PREINCUBATION) is “inactive; negative”; the mutagenic call (Test System: E. COLI, Strain/Indicator: WP2, Metabolic Activation: NONE, Method: PREINCUBATION) is “inactive; negative”; the mutagenic call (Test System: E. COLI, Strain/Indicator: WP2 UVRA, Metabolic Activation: MOUSE, LIVER, S-9, AROCLOR 1254, Method: PREINCUBATION) was “inactive; negative”; the mutagenic call (Test System: E. COLI, Strain/Indicator: WP2 UVRA, Metabolic Activation: NONE, Method: PREINCUBATION) was “inactive; negative”; the mutagenic call (Test System: MOUSE LYMPHOMA, Strain/Indicator: L5178Y (TK+/TK-), Metabolic Activation: NONE, Method: SUSPENSION/PLATE) is “inactive; negative”. In addition, where the note is “Test System: MOUSE LYMPHOMA, Strain/Indicator: L5178Y (TK+/TK-), Metabolic Activation: RAT, LIVER, S-9, AROCLOR 1254, Method: SUSPENSION/PLATE”, the mutagenic call is “active; positive”.

`CC(=O)Nc1ccc(Oc2ccc(Cl)cc2)cc1`: the mutagenic call under setting [3] is “inactive; negative” and the mutagenic call (Test System: AMES SALMONELLA TYPHIMURIUM, Strain/Indicator: TA100, Metabolic Activation: RAT, LIVER, S-9, KANECLOR 500, Method: STANDARD PLATE) is “active; positive”.

With `Fc1cc(F)c2ncccc2c1`, for the setting “Test System: AMES SALMONELLA TYPHIMURIUM, Strain/Indicator: TA100, Metabolic Activation: RAT LIVER S-9, PHENOBARBITAL AND 5,6-BENZOFLAVONE, Method: PREINCUBATION”, the mutagenic call is “active; positive”.

In the case of `CC[C@@]1(O)C[C@H](O)c2c(cc3c(c2O)C(=O)c2c(O)cccc2C3=O)[C@H]1C(=O)OC`, the mutagenic call runs as follows: under setting [2], “active; positive”; under setting [4], “active; positive”; under setting [3], “inactive; negative”; under setting [5], “inactive; negative”.
